These results are taken from ChEMBL document CHEMBL1145059, “Bispyridinium cyclophanes: novel templates for human choline kinase inhibitors” (J Med Chem, 2003).

For orientation: IC50 means the midpoint of a concentration-inhibition curve. Higher therefore signals a need for much substance.

In one experiment the target is Choline kinase alpha (Homo sapiens, UniProt P35790). Briefly: Ex vivo inhibitory activity against human choline kinase was determined.
For the next experiment, the system named is HT-29. Briefly: In vitro inhibition of proliferation in ras transformed cells on the HT-29 (Human tumor) cell line. Format: functional, cell-based.

Sequence of Choline kinase alpha (P35790 whole entry): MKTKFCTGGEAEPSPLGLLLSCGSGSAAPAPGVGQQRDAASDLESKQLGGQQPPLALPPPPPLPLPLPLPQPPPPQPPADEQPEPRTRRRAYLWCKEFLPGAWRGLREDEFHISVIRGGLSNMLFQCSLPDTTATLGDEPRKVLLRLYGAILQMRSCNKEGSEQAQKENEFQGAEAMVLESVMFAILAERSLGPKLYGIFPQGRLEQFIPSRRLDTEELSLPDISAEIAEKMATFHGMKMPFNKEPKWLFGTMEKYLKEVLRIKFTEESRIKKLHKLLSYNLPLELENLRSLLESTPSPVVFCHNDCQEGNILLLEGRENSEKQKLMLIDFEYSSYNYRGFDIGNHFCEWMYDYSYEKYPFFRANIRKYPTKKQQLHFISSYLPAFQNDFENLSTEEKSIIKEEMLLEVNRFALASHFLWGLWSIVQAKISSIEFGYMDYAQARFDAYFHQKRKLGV

Consider `c1cc2cc(c1)CNc1cc[n+](cc1)Cc1cccc(c1)C[n+]1ccc(cc1)NC2`, for which the values for the IC50 against Choline kinase alpha and in the experiment on HT-29 were 13.2 µM and over 100 µM, respectively.

Take `c1cc2cc(c1)CNc1cc[n+](cc1)Cc1ccc(cc1)C[n+]1ccc(cc1)NC2`: the IC50 was 0.3 µM against Choline kinase alpha and 28.8 µM with HT-29.

As to `c1cc2ccc1CNc1cc[n+](cc1)Cc1ccc(cc1)C[n+]1ccc(cc1)NC2`, the IC50 on Choline kinase alpha turned out to be 2.1 µM; in the experiment on HT-29, 36.9 µM.

`CN(c1ccc(Cl)cc1)c1cc[n+](Cc2cc(C[n+]3ccc(N(C)c4ccc(Cl)cc4)cc3)cc(C[n+]3ccc(N(C)c4ccc(Cl)cc4)cc3)c2)cc1` yielded an IC50 on Choline kinase alpha of 1.4 µM.

As for `c1cc2cc(c1)C[n+]1ccc(cc1)NCc1ccc(cc1)CNc1cc[n+](cc1)C2`, the results for the IC50 on Choline kinase alpha and in the experiment with HT-29 were 24.8 µM and 58.6 µM, respectively.
